In BindingDB's records for doi:10.1021/np049624z (Harvard Medical School, 2005):

Target: Forkhead box protein O1 (Homo sapiens, UniProt Q12778)
Test: Inhibition of FOXO1a nuclear export in PTEN-deficient cells

Sequence of Forkhead box protein O1 (Q12778 whole entry): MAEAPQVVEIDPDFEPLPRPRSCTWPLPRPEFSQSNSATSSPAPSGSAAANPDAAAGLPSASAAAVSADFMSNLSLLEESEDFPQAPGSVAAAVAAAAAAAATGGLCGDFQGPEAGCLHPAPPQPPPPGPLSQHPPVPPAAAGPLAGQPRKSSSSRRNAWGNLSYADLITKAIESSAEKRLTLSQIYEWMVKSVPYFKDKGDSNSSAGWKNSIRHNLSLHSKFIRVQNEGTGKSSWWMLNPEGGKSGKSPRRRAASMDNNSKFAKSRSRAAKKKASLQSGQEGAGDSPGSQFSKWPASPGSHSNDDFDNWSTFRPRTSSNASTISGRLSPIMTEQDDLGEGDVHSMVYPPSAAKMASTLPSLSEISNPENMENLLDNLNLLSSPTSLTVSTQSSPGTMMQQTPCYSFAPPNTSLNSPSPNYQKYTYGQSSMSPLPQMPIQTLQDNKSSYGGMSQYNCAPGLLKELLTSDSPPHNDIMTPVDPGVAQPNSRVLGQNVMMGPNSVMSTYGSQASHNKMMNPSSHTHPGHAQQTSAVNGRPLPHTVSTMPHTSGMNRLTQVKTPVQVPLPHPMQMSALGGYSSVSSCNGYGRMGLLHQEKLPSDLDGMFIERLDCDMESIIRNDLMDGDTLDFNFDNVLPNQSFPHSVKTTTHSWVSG

| Compound | IC50 |
| --- | --- |
| CN(C)CCCOc1c(Br)cc(/C=C/C(=O)NCCCOc2c(Br)cc(CCN(C)C)cc2Br)cc1Br [psammaplysene A] | 5 µM |
| CNCCCOc1c(Br)cc(/C=C/C(=O)NCCCOc2c(Br)cc(CCN(C)C)cc2Br)cc1Br [psammaplysene B] | 20 µM |
